Source: US20180136197A1, “CELL-FREE METHODS OF DETECTING BIOACTIVE LIGANDS” (Brigham Young University, priority 2016, published 2018)

Tested on: E. coli-based CFPS of GFP
Test: Cell-free protein synthesis (CFPS) of model protein GFP in presence of additives
Type: biochemical
Procedure: CFPS reactions took place in a 96-well plate at 37° C. for 2 hours. PANOxSP was used as an energy source (25% reaction volume of the cell extract, 1.2 nM plasmid, 12 to 15 mM magnesium glutamate, 1 mM 1,4-diaminobutane, 1.5 mM Spermidine, 33.3 mM phosphoenolpyruvate, 10 mM ammonium glutamate, 175 mM potassium glutamate, 2.7 mM potassium oxalate, 0.33 mM nicotinamide adenine dinucleotide, 0.27 mM coenzyme A, 1.2 mM ATP, 0.86 mM CTP, 0.86 mM GTP, 0.86 mM UTP, 0.17 mM folinic acid, 2 mM of all canonical amino acids with the exception of glutamic acid^81. Expressed protein was quantified by addition of 5 μM radiolabeled (U-14C) leucine (PerkinElmer, Waltham, Mass.) to the CFPS reaction. Varying concentrations (0 to 200 μM) of ligands were added to the CFPS reaction. In case of human sample testing, 20% and 10% of whole blood and urine (v/v), respectively were added to the CFPS in addition to the EDC ligands.
Initially, we hypothesized that urea is the main component to hinder protein synthesis in urine samples. The urea concentration in human samples is in a range of 0.1 to 0.8 M^88-89 with the average being 0.22 M^90. To understand the effect of urea on CFPS, we synthesized the model protein GFP in the presence of urea at concentrations between 0.001 to 1 M (FIG. 23). […] Error bars represent one standard deviation for n=3. […] Even reactions with 0.5 M urea retained 40% protein synthesis capability.
We next hypothesized that RNase activity hinders protein synthesis in both urine and blood samples^91,92,93. To test this hypothesis, we performed CFPS of GFP in the presence of urine and blood, and added murine RNase inhibitor as shown in FIGS. 24A and 24B. FIGS. 24A and 24B show the effect of RNase inhibitor on CFPS of GFP in the presence of urine (top) and blood (bottom). The lighter bars in both graphs represent the improvements in protein production in the presence of urine or blood with the addition of RNase inhibitor. The error bars represent one standard deviation for n=3. […] For instance, for 20% by volume urine sample, the GFP production yield increased from less than 10% to more than 30%. The improvement was more significant for blood samples, as 10% by volume blood eliminated protein synthesis, but even 45% by volume blood in CFPS containing RNase inhibitor retained 50% protein synthesis yield. […] Adding RNase inhibitors to CFPS reactions facilitates synthesis of sufficient biosensor protein to detect ligands in up to 25% and 45% by volume urine and blood, respectively. These higher volume percentages help to detect lower concentrations of ligands in the samples.

Molecule	effect on CFPS performance (0.1 M urea)	retained protein synthesis capability (0.5 M urea) [%]	GFP production yield (20% by volume urine, with RNase inhibitor (less than 10% without))	retained protein synthesis yield (45% by volume blood, with RNase inhibitor) [%]
NC(N)=O [urea]	doesn't have a significant effect	40	–	–
RNase inhibitor: murine RNAse inhibitor purchased from New England Biolabs, added to CFPS reactions (protein, UniProt Q91VI7 1-456, looked up) Ribonuclease inhibitor: MSLDIQCEQLSDARWTELLPLIQQYEVVRLDDCGLTEVRCKDISSAVQANPALTELSLRTNELGDGGVGLVLQGLQNPTCKIQKLSLQNCGLTEAGCGILPGMLRSLSTLRELHLNDNPMGDAGLKLLCEGLQDPQCRLEKLQLEYCNLTATSCEPLASVLRVKADFKELVLSNNDLHEPGVRILCQGLKDSACQLESLKLENCGITAANCKDLCDVVASKASLQELDLSSNKLGNAGIAALCPGLLLPSCKLRTLWLWECDITAEGCKDLCRVLRAKQSLKELSLASNELKDEGARLLCESLLEPGCQLESLWIKTCSLTAASCPYFCSVLTKSRSLLELQMSSNPLGDEGVQELCKALSQPDTVLRELWLGDCDVTNSGCSSLANVLLANRSLRELDLSNNCMGGPGVLQLLESLKQPSCTLQQLVLYDIYWTNEVEEQLRALEEERPSLRIIS	–	–	more than 30%	50
